# Structures can show the parent of a compound that is named as a salt. Where two headings read alike, the source gives them in different places. Marks after values point to notes of the source that are not given here.
# Legend:
# [1] = test system: B. cucuribitae (melon fly); experiment: Median lethal time (LT50) test, melon fly; assay type: in vivo, Bactrocera cucuribitae
# Source text: (§1) All treatments and controls were in triplicate.
# (§2) Toxicity of Monoterpenes as Fumigants. […] Therefore, to determine how fast the monoterpenes act as fumigants, it was necessary to determine their LT50 values for the target organisms.
# [2] = test system: T. castaneum (red flour beetle); experiment: Median lethal time (LT50) test, red flour beetle; assay type: in vivo, Tribolium castaneum
# Source text: as §1, §2
# [3] = test system: H. picinus (Nitidulid beetle); experiment: Median lethal time (LT50) test, Nitidulid beetle; assay type: in vivo, Haptoncus picinus
# Source text: as §1, §2
# M. domestica (housefly) = experiment: Median lethal time (LT50) test, housefly; assay type: in vivo, Musca domestica
# Source text: as §1, §2
# [4] = test system: A. japonicus (parasitic wasp); experiment: Median lethal time (LT50) test, parasitic wasp (natural enemy); settings: non-target parasitic wasp
# Protocol: (§3) Insect Egg Parasitic Wasp (Natural Enemy). […] Both species were purchased from a commercial source. One- to two-day-old adults (after eclosion) were used for fumigation tests.
# Median Lethal Time (LT50) and Median Knockdown Concentration (KC50) Tests. Five species of adult insects or natural enemies were tested for LT50 values including melon fly (B. cucuribitae), red flour beetle (T. castaneum), Nitidulidae beetle (H. picinus), parasitic wasp (A. japonicus) and housefly (M. domestica). For each treatment and control, 20 insects at the developmental stages described above were placed individually without food in a 1-L wide-mouth glass bottle (height 19.5 cm, bottom diameter 10.5 cm, mouth i.d. 5.5 cm) containing pieces of tissue paper. […] Five different concentrations of the test chemicals were placed on pieces of cellulose-based qualitative filter paper. Each of the filter papers was placed in a bottle to have 5 appropriate concentrations in serial dilutions. DDVP was the positive control, and no chemical treatments were the negative control. All treatments and controls were in triplicate. Mortality was observed periodically in a 10-30 minute interval for 2 days or until all insects died. The death was defined as no movement when the insects were touched.
# [5] = test system: Megalurothrips usitatus (flower Thrips); settings: for mortality: in vivo; for activity against flower Thrips in preliminary screening: adult M. usitatus, 24 hours of fumigation in 1-L flasks
# adult T. palmi = settings: cited from earlier work
# [6] = test system: Megalurothrips usitatus (Bagrall) (thrips); experiment: Median lethal concentration fumigation test, thrips; settings: adult thrips, exposed one hour, mortality observed in 24 hours
# Source text: (§4) Median Lethal Concentration Tests. […] The species tested included Thrips (M. usitatus), spider mite (T. cinnabarinus), melon fly (B. cucuribitae), cockroach (B. lateralis), housefly (M. domestica), mosquito (A. aegypti), parasitic wasp (T. chilonis) and fruit fly (Drosophila melanogaster). After being exposed to the test chemicals for one hour, adult Thrips, spider mites, and roaches were transferred to another flask. In addition to fresh water, adult Thrips, spider mites, and roaches were then respectively fed with cowpea, fresh blade of eggplant, and peanut oil via filter. […] Mortality of melon fly was observed after three hours of exposure.
# [7] = test system: Aedes aegypti (Linnaeus) (mosquito)
# Source text: as §4
# [8] = test system: Bactrocera cucuribitae (Coquillett) (melon fly)
# Source text: as §4
# [9] = test system: Blatta lateralis (Walker) (cockroach)
# Source text: as §4
# [10] = test system: Musca domestica (Linnaeus) (housefly)
# Source text: as §4
# [11] = test system: Tetranychus cinnabarinus (Boisduval) (spider mites)
# Source text: as §4
# [12] = test system: Drosophila melanogaster (fruit fly); experiment: Median lethal concentration fumigation test, fruit fly; assay type: in vivo; settings: mortality after 280 minutes
# Aedes aegypti (mosquito) = experiment: Median knockdown concentration (KC50) test, mosquito; assay type: in vivo
# Source text: as §1
# (§5) Knockdown Activity of Monoterpenes.
# [13] = test system: Musca domestica (housefly); experiment: Median knockdown concentration (KC50) test, housefly; assay type: in vivo; settings: for KC50 (fiducial limits): Musca domestica; for time within which the insects responded: houseflies
# Source text: as §1, §5
# [14] = test system: T. chilonis (parasitic wasp); settings: non-target parasitic wasp, mortality after 15 minutes of exposure
# Source text: as §3, §4
# [15] = cited from earlier work
# flower Thrips = experiment: Field test in cowpea fields, thrips; assay type: in vivo
# Protocol: (§6) Field Tests. […] Therefore, it was determined whether this compound could control Thrips in the field. Linalool was in 20-, 10- and 5.0-fold dilutions with edible peanut oil. The positive control was spinetoram (Dow AgroSciences) in 3000-fold dilution.
# (§7) The field experimental plots were 15 m^2 in size, in triplicate. A designated sprayer (Dia spray No. 3530, Japan Furlpla Co., Japan) was used to spray the solvent only negative control in this experiment. Grub density was calculated at every plot prior to application. During the experiments, the field was also infested with leafhoppers, so that the control efficacy of leafhoppers was also assessed. The number of adult Thrips and leafhoppers was assessed in the treatment and control areas at 1, 3, 5, 7, 14 and 21 days after application. The decline of the adult Thrips and leafhoppers was calculated to assess the control efficacy of linalool.
# Field Applications. To assess the use of monoterpenes in the field, linalool was tested for control of flower Thrips in cowpea fields. […] At 1 and 3 days after treatment, control efficacy respectively reached 98% and 100% for the 10-fold dilution (Table 15). By comparison, the positive control, a 3000-fold dilution of spinetoram, reached 70% and 94% at 1 and 3 days after treatment, respectively (Table 17).
# [16] = test system: leafhoppers, Cicadella viridi linne; experiment: Field test, leafhoppers; assay type: in vivo; settings: Leafhopper
# Protocol: as §6, §7
# A 10-fold dilution of linalool was also the most efficacious application, compared to 5- and 20-fold dilutions, in controlling leafhoppers, Cicadella viridi linne (Hemiptera: Cicadellidae). At 7 and 14 days after treatment, the control efficacy of the 10-fold dilution of linalool reached 96% and 98%, respectively.
# [17] = adult mosquito, exposed 30 minutes, mortality in 24 hours
# [18] = cockroach second instar nymphs, exposed one hour
# [19] = adult housefly, exposed one hour, mortality in 24 hours
compound,measurement,setting,value
CC(C)=O [Acetone],LT50 (fiducial limits),[1],>48^a ^ hour
same,LT50 (fiducial limits),[2],>48^a ^ hour
same,LT50 (fiducial limits),[3],>48^a ^ hour
same,LT50 (fiducial limits),M. domestica (housefly),>48^a ^ hour
same,LT50 (fiducial limits) against A. japonicus,[4],>48^a hour
same,mortality,[5],No mortality
"CC12CCC(CC1=O)C2(C)C (racemic) [(±)-camphor, reference compound]","LC50, fumigation toxicity",adult T. palmi,9.7 µg/mL
"COP(=O)(OC)OC=C(Cl)Cl [DDVP 80%, 2,2-Dichlorovinyl dimethyl phosphate, reference compound]",LC90 (fiducial limits),[6],1.85 µg/mL
same,LC90 (fiducial limits),[7]; [17],0.0028 µg/mL
same,LC90 (fiducial limits),[8]; melon fly,0.0014 µg/mL
same,LC90 (fiducial limits),[9]; [18],9.51 µg/mL
same,LC90 (fiducial limits),[10]; [19],0.53 µg/mL
same,LC90 (fiducial limits),"[11]; spider mites, exposed one hour",0.80 µg/mL
same,LC90 (fiducial limits),[12],0.002 ng/mL
same,LT50 (fiducial limits),[1],0.89 h
same,LT50 (fiducial limits),[2],2.70 h
same,KC50 (fiducial limits),Aedes aegypti (mosquito); 30 Minutes,>0.081 µg/mL
same,KC50 (fiducial limits),[13]; 20 Minutes,>2.7 µg/mL
same,KC50 (fiducial limits),[13]; 30 Minutes,>2.7 µg/mL
same,LC90 (fiducial limits) against T. chilonis,[14],>3.75 µg/mL
same,LT50 (fiducial limits) against A. japonicus,[4],0.41 (0.07-0.49) hour
C=C(C)[C@@H]1CC=C(C)CC1 [(−)-Limonene],activity against flower Thrips in preliminary screening,[5],not active
same,Vp (Pa)/T (° C.),[15]; T 25 °C,206.65/25 Pa
C=C(C)[C@H]1CC=C(C)CC1 [(+)-Limonene],activity against flower Thrips in preliminary screening,[5],not active
same,Vp (Pa)/T (° C.),[15]; T 25 °C,263.97/25 Pa
C=CCc1ccc(OC)cc1 [Estragole],LC50 (fiducial limits),[6],0.24 µg/mL
same,LC90 (fiducial limits),[6],1.29 µg/mL
same,LC50 (fiducial limits),[6]; listed as estragole,0.241 µg/mL
same,LC90 (fiducial limits),[7]; [17],0.91 µg/mL
same,LC50 (fiducial limits),[7]; in vivo,0.25 µg/mL
same,LC50 (fiducial limits),[8]; in vivo,483 µg/mL
same,LC90 (fiducial limits),[8]; melon fly,953 µg/mL
same,LC90 (fiducial limits),[9]; [18],15.3 µg/mL
same,LC50 (fiducial limits),[9]; in vivo,24.1 µg/mL
same,LC90 (fiducial limits),[10]; [19],15.3 µg/mL
same,LC50 (fiducial limits),[10]; in vivo,5.89 µg/mL
same,LC50 (fiducial limits),[11]; in vivo,3.28 µg/mL
same,LC90 (fiducial limits),"[11]; spider mites, exposed one hour",21.0 µg/mL
same,LT50 (fiducial limits),[1],1.69 h
same,LT50 (fiducial limits),[2],8.23 h
same,LT50 (fiducial limits),[3],0.60 h
same,LT50 (fiducial limits),M. domestica (housefly),1.04 h
same,KC50 (fiducial limits),Aedes aegypti (mosquito); 10 Minutes,>8.1 µg/mL
same,KC50 (fiducial limits),Aedes aegypti (mosquito); 20 Minutes,2.32 µg/mL
same,KC50 (fiducial limits),Aedes aegypti (mosquito); 30 Minutes,>8.1 µg/mL
same,KC50 (fiducial limits),[13]; 20 Minutes,>502 µg/mL
same,KC50 (fiducial limits),[13]; 30 Minutes,>243 µg/mL
same,LC50 (fiducial limits) against T. chilonis,[14],1.64 µg/mL
same,LC90 (fiducial limits) against T. chilonis,[14],34.9 µg/mL
same,LT50 (fiducial limits) against A. japonicus,[4],1.19 (1.02-1.37) hour
same,activity against flower Thrips in preliminary screening,[5],exhibit insecticidal activity
C=CC(=C)CCC=C(C)C [Myrcene],activity against flower Thrips in preliminary screening,[5],not active
same,Vp (Pa)/T (° C.),[15]; T 25 °C,278.64/25 Pa
C=C[C@](C)(O)CCC=C(C)C [(−)-Linalool],Vp (Pa)/T (° C.),[15]; T 23.5 °C,21.20/23.5 Pa
C/C=C/c1ccc(OC)cc1 [trans-Anethole],LT50 (fiducial limits),[1],2.28 h
same,LT50 (fiducial limits),[2],7.97 h
same,LT50 (fiducial limits),[3],1.07 h
same,LT50 (fiducial limits),M. domestica (housefly),2.01 h
same,KC50 (fiducial limits),Aedes aegypti (mosquito); 10 Minutes,>8.1 µg/mL
same,KC50 (fiducial limits),Aedes aegypti (mosquito); 20 Minutes,4.84 µg/mL
same,KC50 (fiducial limits),Aedes aegypti (mosquito); 30 Minutes,4.05 µg/mL
same,KC50 (fiducial limits),[13]; 30 Minutes,>243 µg/mL
same,time within which the insects responded,[13],≤ 30 min
same,LT50 (fiducial limits) against A. japonicus,[4],0.933 (0.73-1.11) hour
same,activity against flower Thrips in preliminary screening,[5],exhibit insecticidal activity
"CCOC=O [ethyl formate, reference compound]",LC50,"[5]; flower Thrips, positive fumigant control",greater than 9.2 μg/cm^3
Spinetoram,Control Efficacy,flower Thrips; 1 DAT,70%
same,Control Efficacy,flower Thrips; 3 DAT,94%
same,Control Efficacy,flower Thrips; 5 DAT,37%
same,Control Efficacy,flower Thrips; 7 DAT,33%
same,Control Efficacy,flower Thrips; 14 DAT,62%
same,Control Efficacy,flower Thrips; 21 DAT,0%
same,Control Efficacy,[16]; 1 DAT,68%
same,Control Efficacy,[16]; 3 DAT,87%
same,Control Efficacy,[16]; 5 DAT,36%
same,Control Efficacy,[16]; 7 DAT,49%
same,Control Efficacy,[16]; 14 DAT,66%
same,Control Efficacy,[16]; 21 DAT,25%
Cc1ccc(C(C)C)cc1O [Carvacrol],LC50 (fiducial limits),[6],>19.2 µg/mL
same,LC90 (fiducial limits),[6],>19.2 µg/mL
same,LC50 (fiducial limits),[7]; [17],0.77 µg/mL
same,LC90 (fiducial limits),[7]; [17],3.92 µg/mL
same,LC50 (fiducial limits),[8]; melon fly,>243 µg/mL
same,LC90 (fiducial limits),[8]; melon fly,>243 µg/mL
same,LC50 (fiducial limits),[9]; [18],84.5 µg/mL
same,LC90 (fiducial limits),[9]; [18],118 µg/mL
same,LC50 (fiducial limits),[10]; [19],>243 µg/mL
same,LC90 (fiducial limits),[10]; [19],>243 µg/mL
same,LC50 (fiducial limits),"[11]; spider mites, exposed one hour",37.5 µg/mL
same,LC90 (fiducial limits),"[11]; spider mites, exposed one hour",510 µg/mL
same,LT50 (fiducial limits),[1],2.49 h
same,LT50 (fiducial limits),[2],9.95 h
same,LT50 (fiducial limits),[3],1.94 h
same,LT50 (fiducial limits),M. domestica (housefly),2.30 h
same,KC50 (fiducial limits),Aedes aegypti (mosquito); 10 Minutes,>243 µg/mL
same,KC50 (fiducial limits),Aedes aegypti (mosquito); 20 Minutes,6.0 µg/mL
same,KC50 (fiducial limits),Aedes aegypti (mosquito); 30 Minutes,>243 µg/mL
same,KC50 (fiducial limits),[13]; 10 Minutes,>7600 µg/mL
same,KC50 (fiducial limits),[13]; 20 Minutes,>243 µg/mL
same,KC50 (fiducial limits),[13]; 30 Minutes,>243 µg/mL
same,time within which the insects responded,[13],≤ 10 min
same,LC50 (fiducial limits) against T. chilonis,[14],826 µg/mL
same,LC90 (fiducial limits) against T. chilonis,[14],7.08 µg/mL
same,LT50 (fiducial limits) against A. japonicus,[4],3.32 (2.05-7220) hour
same,activity against flower Thrips in preliminary screening,[5],exhibit insecticidal activity
same,Vp (Pa)/T (° C.),[15]; T 25 °C,3.99/25 Pa
ClC(Cl)Cl [Chloroform],LT50 (fiducial limits),[1],>48^a ^ hour
same,LT50 (fiducial limits),[2],>48^a ^ hour
same,LT50 (fiducial limits),[3],>48^a ^ hour
same,LT50 (fiducial limits),M. domestica (housefly),>48^a ^ hour
same,LT50 (fiducial limits) against A. japonicus,[4],>48^a hour
same,mortality,[5],No mortality
"CC12CCC(CC1)C(C)(C)O2 [1,8-Cineole]",Vp (Pa)/T (° C.),[15]; T 25 °C,253.31/25 Pa
same,"LC50, fumigation toxicity",adult T. palmi,16.7 µg/mL
